Assay results reported in publication PMC11002876, “KcsA-Kv1.x chimeras with complete ligand-binding sites provide improved predictivity for screening selective Kv1.x blockers” (The Journal of Biological Chemistry, 2024).
pIC50: −log10 of the molar value. Like-named read-outs stand apart in the source and are kept apart here. Where a SMILES comes first, the peptide text is derived from it.

How the values were obtained:
mouse Kv1.1 = conditions: cited from earlier work
Source text: (§1) Peptide toxins of venomous animal origin as lead molecules for optimization may offer an advantage over small molecules in terms of potentially greater affinity and specificity. These miniproteins are usually up to 50 amino acids in length and can adopt distinct conformation with secondary structural elements stabilized by several disulfide bonds ([9], [10], [11]). Due to their considerable surface area, miniproteins can form stable complexes with target proteins through extensive interaction surfaces ([12], [13]). The miniprotein Kv1.3 blocker drug candidate, Dalazatide—a synthetic derivative ...

KCa3.1 = conditions: cited from earlier work
Source text: as §1

Kv1.2 = conditions: cited from earlier work
Source text: as §1

KcsA-Kv1.2 T+F chimera [1] = molecular target: T1, KcsA-Kv1.2 T+F chimera (Streptomyces lividans, UniProt P0A334, R52A/G53D/A54E/P55R/G56E/A57S/L59F/I60P/T61S/Y62I/R64D/L81M/Y82V/V84T); assay: Phage-binding competition assay, KcsA-Kv1.2 T+F; design: species or system human Kv1.2 turret and filter in Streptomyces lividans KcsA; conditions: rank by competition IC50 among MTX, ShK, KTX1
T1 sequence (P0A334 1-160 R52A/G53D/A54E/P55R/G56E/A57S/L59F/I60P/T61S/Y62I/R64D/L81M/Y82V/V84T): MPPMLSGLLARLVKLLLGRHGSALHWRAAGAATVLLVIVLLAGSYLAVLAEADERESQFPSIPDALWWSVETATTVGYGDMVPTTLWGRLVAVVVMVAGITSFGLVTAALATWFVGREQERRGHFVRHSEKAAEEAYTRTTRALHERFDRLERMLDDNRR
Description: (§2) Phage stock solutions were diluted to working concentration with phage resuspension buffer supplemented with 2 mM DDM. For protein immobilization, the following amounts were used in a final volume of 50 μl/well: wt KcsA, 0.1 μg; KcsA-Kv1.1 T-only, 0.005 μg; KcsA-Kv1.1 T+F, 0.02 μg; KcsA-Kv1.2 T-only, 0.01 μg; KcsA-Kv1.2 T+F, 0.1 μg; KcsA-Kv1.3 T-only, 0.01 μg; and KcsA-Kv1.3 T+F, 0.1 μg. Protein samples were diluted in 50 μl of storage buffer (20 mM Tris pH8.0, 300 mM KCl, 2 mM DDM) and were added to the designated wells of a Pierce Clear, 96-Well Nickel Coated Plate (15442, Thermo Fisher Scientific), then incubated for 1 h at room temperature on a horizontal shaker at 130 rpm. The plate was blocked for 1 h at room temperature with 180 μl/well TBS-BSA supplemented with 1 mM DDM. Following blocking, the wells were washed 4× with washing buffer (300 μl TBS-Tween, 0.1% v/v) using a Wellwash Versa microplate washer (Thermo Fisher Scientific); then 50 μl phage solution (in TBS-BSA-Tween, 0.1% v/v, 2 mM DDM) at determined phage concentration was added to the wells and incubated for 1 h at room temperature on a horizontal shaker. The plate was washed 4× with washing buffer, then 50 μl anti-M13 IgG HRP (MA5-36125, Invitrogen) diluted to 1:2500 in TBS-Tween (0.1% v/v) was added to the wells and incubated for 1 h at room temperature. The plate was washed again 4× with 300 μl/well washing buffer. Finally, 50 μl/well 1-Step Ultra TMB-ELISA solution (34028, Thermo Fisher Scientific) was added to the wells, and the developing signal was stopped with 50 μl 1M HCl after 5 to 10 min. The light absorbance signal was read at 450 nm with Byonoy absorbance 96 plate reader (Byonoy GmbH).
(§3) For protein immobilization, the following amounts were used in a final volume of 50 μl/well: KcsA-Kv1.1 T-only, 0.005 μg; KcsA-Kv1.1 T+F, 0.01 μg; KcsA-Kv1.2 T-only, 0.025 μg; KcsA-Kv1.2 T+F, 0.0125 μg; KcsA-Kv1.3 T-only, 0.01 μg; and KcsA-Kv1.3 T+F, 0.1 μg. Protein samples were diluted in storage buffer. Binding of given concentrations of relevant ligand-displaying phages quantified by light absorbance ([…]) were investigated in a similar manner as in phage ELISA-binding assay, while different concentrations of competing toxin test substances were applied simultaneously. The results were converted to percent inhibitions (percent displacement) of the indicator phage binding, and relative affinities of the tested toxins were assessed by plotting percent displacements against log concentrations and determining half maximal inhibitory concentrations (IC50) by sigmoidal curve fitting using “Sigmoidal dose-response (variable slope) with least squares method” algorithm in GraphPad Prism 8 using the following equation: Y=Bottom+Top−Bottom/1+10^(LogEC50−×)⋅HillSlope

KcsA-Kv1.2 T+F chimera [2] = molecular target: T2, KcsA-Kv1.2 T+F chimera (Streptomyces lividans, UniProt P0A334, A54E/A57S/G53D/G56E/I60P/L59F/L81M/P55R/R52A/R64D/T61S/V84T/Y62I/Y82V); assay: Phage-binding competition assay, KcsA-Kv1.2 T+F; design: species or system human Kv1.2 turret and filter in Streptomyces lividans KcsA
T2 sequence (P0A334 1-160 R52A/G53D/A54E/P55R/G56E/A57S/L59F/I60P/T61S/Y62I/R64D/L81M/Y82V/V84T): T1 sequence (P0A334 1-160 R52A/G53D/A54E/P55R/G56E/A57S/L59F/I60P/T61S/Y62I/R64D/L81M/Y82V/V84T)
Description: as §2, §3

[3] = displacement of HgTx1-phage, KcsA-Kv1.2 T+F 0.0125 μg/well on nickel-coated plate, mean ± SD (n = 3), read-out: IC50, T+F chimera (Kv1.2)

SMILES	selectivity for Kv1.3 over mouse Kv1.1 (mouse Kv1.1)	selectivity for Kv1.3 over KCa3.1 (KCa3.1)	selectivity for Kv1.3 over Kv1.2 (Kv1.2)	Rank, T+F chimera (Kv1.2) (KcsA-Kv1.2 T+F chimera [1])	pIC50 (KcsA-Kv1.2 T+F chimera [2]; HgTx1-phage competition, KcsA-Kv1.2 T+F, value given in figure, sigmoidal fit to means of three replicates, read-out: IC50 (Fig. 7F))	pIC50 (KcsA-Kv1.2 T+F chimera [2]; [3])
CC[C@H](C)[C@H](NC(=O)[C@H](C)NC(=O)[C@H](C)NC(=O)[C@H](C)N)C(=O)N[C@@H](CO)C(=O)N[C@H]1CSSC[C@@H]2NC(=O)[C@H](CCCCN)NC(=O)CNC(=O)[C@H](CC(N)=O)NC(=O)[C@H](CCCCN)NC(=O)[C@@H]3CSSC[C@@H](C(N)=O)NC(=O)[C@H](Cc4ccc(O)cc4)NC(=O)[C@H](Cc4ccc(O)cc4)NC(=O)[C@@H]4CSSC[C@H](NC(=O)[C@H](CCCCN)NC(=O)[C@@H]5CCCN5C(=O)[C@@H]5CCCN5C(=O)[C@H](CSSC[C@H](NC(=O)[C@H](CCCCN)NC(=O)[C@H](CCCNC(=N)N)NC(=O)[C@H](CC(N)=O)NC(=O)[C@H](CCSC)NC2=O)C(=O)N[C@@H](CCCCN)C(=O)N4)NC(=O)[C@H](CCC(=O)O)NC(=O)[C@@H]2CCCN2C(=O)[C@H](CO)NC(=O)CNC(=O)[C@H](C(C)C)NC1=O)C(=O)N[C@@H](CCCNC(=N)N)C(=O)N[C@@H](C)C(=O)N[C@@H](CCC(N)=O)C(=O)NCC(=O)N3 [Vm24, Vm24 toxin]	limited selectivity	limited selectivity	limited selectivity			
CC[C@H](C)[C@@H]1NC(=O)[C@@H]2CSSC[C@H](NC(=O)[C@H](CO)NC(=O)[C@@H](N)C(C)C)C(=O)N[C@@H]([C@@H](C)O)C(=O)NCC(=O)N[C@@H](CO)C(=O)N[C@@H](CCCCN)C(=O)N[C@@H](CC(=O)O)C(=O)N[C@@H](CSSC[C@@H](C(=O)N[C@@H](CCCCN)C(=O)N[C@H]3CSSC[C@@H](C(N)=O)NC(=O)CNC(=O)[C@H](Cc4ccc(O)cc4)NC3=O)NC(=O)[C@H](CO)NC(=O)[C@H](CCCCN)NC(=O)[C@H](CC(N)=O)NC1=O)C(=O)N[C@@H](Cc1ccc(O)cc1)C(=O)N[C@@H](C)C(=O)N1CCC[C@H]1C(=O)N[C@H]1CSSC[C@H](NC(=O)CNC(=O)[C@H]([C@@H](C)O)NC(=O)[C@H](CCC(N)=O)NC(=O)[C@H](CCCCN)NC(=O)[C@H](CCCNC(=N)N)NC1=O)C(=O)N1CCC[C@H]1C(=O)N[C@@H](CC(N)=O)C(=O)N[C@@H](C)C(=O)N[C@@H](CCCCN)C(=O)N2 [MTX, Maurotoxin] (HELM PEPTIDE1{V.S.C.T.G.S.K.D.C.Y.A.P.C.R.K.Q.T.G.C.P.N.A.K.C.I.N.K.S.C.K.C.Y.G.C.[am]}$PEPTIDE1,PEPTIDE1,3:R3-24:R3|PEPTIDE1,PEPTIDE1,9:R3-29:R3|PEPTIDE1,PEPTIDE1,13:R3-19:R3|PEPTIDE1,PEPTIDE1,31:R3-34:R3$$$V2.0; N-terminus and C-terminus assumed)				1	9.89	
CC[C@H](C)[C@@H]1NC(=O)[C@@H](NC(=O)[C@H](CO)NC(=O)[C@@H](N)CCCNC(=N)N)CSSC[C@@H](C(=O)O)NC(=O)[C@H]([C@@H](C)O)NC(=O)CNC(=O)[C@@H]2CSSC[C@@H]3NC(=O)[C@H](CCC(N)=O)NC(=O)[C@H](Cc4ccccc4)NC(=O)[C@H](C)NC(=O)[C@H]([C@@H](C)O)NC(=O)[C@H](CSSC[C@H](NC(=O)[C@H](Cc4ccccc4)NC(=O)[C@H](CO)NC(=O)[C@H](CC(C)C)NC(=O)[C@H](CCCNC(=N)N)NC(=O)[C@H](Cc4ccc(O)cc4)NC(=O)[C@H](CCCCN)NC(=O)[C@H](CCSC)NC(=O)[C@H](CO)NC(=O)[C@H](Cc4c[nH]cn4)NC(=O)[C@H](CCCCN)NC3=O)C(=O)N[C@@H](CCCNC(=N)N)C(=O)N[C@@H](CCCCN)C(=O)N[C@@H]([C@@H](C)O)C(=O)N2)NC(=O)[C@H](CCCNC(=N)N)NC(=O)[C@H](CO)NC(=O)[C@H](CCCCN)NC(=O)[C@@H]2CCCN2C(=O)[C@H]([C@@H](C)CC)NC(=O)[C@H]([C@@H](C)O)NC(=O)[C@H](CC(=O)O)NC1=O [ShK, Stichodactyla toxin]				2		7.80
CC[C@H](C)[C@H](NC(=O)[C@H](CCC(=O)O)NC(=O)[C@@H](NC(=O)CN)C(C)C)C(=O)N[C@@H](CC(N)=O)C(=O)N[C@H](C(=O)N[C@@H](CCCCN)C(=O)N[C@H]1CSSC[C@@H]2NC(=O)[C@H](CCCCN)NC(=O)CNC(=O)[C@H](Cc3ccccc3)NC(=O)[C@H](CCCNC(=N)N)NC(=O)[C@H](CCSC)NC(=O)CNC(=O)[C@H](C)NC(=O)[C@H](CC(=O)O)NC(=O)[C@H](CCCCN)NC(=O)[C@@H]3CSSC[C@@H](C(=O)N[C@H](C(=O)N4CCC[C@H]4C(=O)N[C@@H](CCCCN)C(=O)O)[C@@H](C)O)NC(=O)[C@H](Cc4c[nH]cn4)NC(=O)[C@H](CSSC[C@H](NC(=O)[C@H](CCC(N)=O)NC(=O)[C@@H]4CCCN4C(=O)[C@H](CO)NC(=O)CNC(=O)[C@H](CO)NC1=O)C(=O)N[C@@H](CC(C)C)C(=O)N[C@@H](CCCCN)C(=O)N1CCC[C@H]1C(=O)N3)NC(=O)[C@H](CCCCN)NC(=O)[C@H](CCCNC(=N)N)NC(=O)[C@H](CC(N)=O)NC(=O)[C@H](CCSC)NC2=O)C(C)C [KTX1, Kaliotoxin-1]				3		6.69
